Legend:
[1] = tested on: purified bacterial succinyl-CoA synthetase (BSCS); test: in-gel BN-PAGE ATP hydrolysis assay; assay type: biochemical, Escherichia coli; details: 8 mM ATP, 20 mM succinate, 0.5 mM CoA, 14 mM MgSO4, pH 7.8, room temperature
[2] = tested on: purified bacterial succinyl-CoA synthetase (BSCS); test: in-gel BN-PAGE GTP hydrolysis assay; assay type: biochemical, Escherichia coli; details: 8 mM GTP, 20 mM succinate, 0.5 mM CoA, 14 mM MgSO4, pH 7.8, room temperature

purified bacterial succinyl-CoA synthetase (BSCS), sequence (P0AGE9 2-289): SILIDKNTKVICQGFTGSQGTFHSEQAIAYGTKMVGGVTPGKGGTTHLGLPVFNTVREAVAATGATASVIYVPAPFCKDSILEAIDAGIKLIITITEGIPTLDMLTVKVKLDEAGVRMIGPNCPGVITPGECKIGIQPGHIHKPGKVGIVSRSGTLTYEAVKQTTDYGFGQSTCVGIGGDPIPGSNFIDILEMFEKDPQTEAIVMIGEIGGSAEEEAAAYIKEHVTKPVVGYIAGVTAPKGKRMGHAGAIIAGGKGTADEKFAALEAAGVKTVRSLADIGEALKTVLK
purified bacterial succinyl-CoA synthetase (BSCS), sequence (P0A836 whole entry, further chain): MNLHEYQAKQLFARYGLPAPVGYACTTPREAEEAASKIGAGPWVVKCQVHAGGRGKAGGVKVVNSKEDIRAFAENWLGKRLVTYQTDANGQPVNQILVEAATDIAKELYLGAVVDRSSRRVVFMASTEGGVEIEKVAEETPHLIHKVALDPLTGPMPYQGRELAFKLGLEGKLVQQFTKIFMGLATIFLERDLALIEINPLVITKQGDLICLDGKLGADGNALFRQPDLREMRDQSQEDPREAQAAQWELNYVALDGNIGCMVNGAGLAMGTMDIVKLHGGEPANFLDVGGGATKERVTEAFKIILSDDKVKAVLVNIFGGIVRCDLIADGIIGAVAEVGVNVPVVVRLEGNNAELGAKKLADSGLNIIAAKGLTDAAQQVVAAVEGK

Structure (SMILES)	in-gel BN-PAGE ATP hydrolysis assay (lead phosphate) [1]	in-gel BN-PAGE GTP hydrolysis assay (lead phosphate) [2]
Nc1ncnc2c1ncn2[C@@H]1O[C@H](COP(=O)(O)OP(=O)(O)OP(=O)(O)O)[C@@H](O)[C@H]1O [ATP]	ATP-dependent activity of BSCS was higher than the GTP-dependent activity	–
Nc1nc2c(ncn2[C@@H]2O[C@H](COP(=O)(O)OP(=O)(O)OP(=O)(O)O)[C@@H](O)[C@H]2O)c(=O)[nH]1 [GTP]	–	ATP-dependent activity of BSCS was higher than the GTP-dependent activity

Source: PMC2766921 (Biochemistry, 2009)
